Source: PMC6269071, “New Quinoxaline Derivatives as Potential MT1 and MT2 Receptor Ligands” (Molecules, 2012)

Assays:
[1] = biological target: T1, human melatonin MT1 receptor (Homo sapiens, UniProt P48039); assay: 2-[125I]Iodomelatonin competitive binding, MT1; settings: 2-[125I]Iodomelatonin radioligand; membranes of HEK or CHO cells; mean of at least three experiments; read-out: MT1 Ki (µM) ± SEM
T1 construct: expressed in transfected cells; host or cells: HEK or CHO cells, stably transfected; membrane preparations
T1 sequence (P48039 whole entry): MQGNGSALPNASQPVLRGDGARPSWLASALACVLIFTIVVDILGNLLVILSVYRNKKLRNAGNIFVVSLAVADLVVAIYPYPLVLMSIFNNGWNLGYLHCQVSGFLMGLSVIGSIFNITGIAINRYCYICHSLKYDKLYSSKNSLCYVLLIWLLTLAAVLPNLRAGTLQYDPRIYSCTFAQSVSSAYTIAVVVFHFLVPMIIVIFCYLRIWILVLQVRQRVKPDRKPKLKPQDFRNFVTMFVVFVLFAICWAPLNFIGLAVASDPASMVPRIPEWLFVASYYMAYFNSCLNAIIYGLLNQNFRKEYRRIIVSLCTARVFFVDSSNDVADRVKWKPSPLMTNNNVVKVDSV
Protocol: (§1) The binding affinity of the newly synthesized quinoxalines for MT1 and MT2 receptors was tested through competitive binding experiments using 2-[^125I]Iodomelatonin as radioligand.
(§2) Grown at confluence at 37 °C ([…]/5% CO2), they were harvested in PBS containing EDTA 2 mM and centrifuged at 1,000 g for 5 min (4 °C). The resulting pellet was suspended in Tris 5 mM (pH 7.5), containing EDTA 2 mM and homogenized using a Kinematica polytron. The homogenate was then centrifuged (95,000 g, 30 min, 4 °C) and the resulting pellet suspended in 75 mM Tris (pH 7.5), 12.5 mM MgCl2 and 2 mM EDTA. Aliquots of membrane preparations were stored at −80 °C until use.
(§3) 2-[^125I]Iodomelatonin binding assay conditions are essentially as previously described. Briefly, binding is initiated by the addition of membrane preparations from stable transfected HEK or CHO cells diluted in binding buffer (50 mM Tris-HCl buffer, pH 7.4, containing 5 mM MgCl2) to 2-[^125I]Iodomelatonin (25 or 200 pM for MT1 and MT2 receptors, respectively, expressed in HEK cells or 20 pM for MT1 and MT2 receptors expressed in CHO cells) and the tested drug. […] After 120 min of incubation at 37 °C, the reaction was stopped by rapid filtration through GF/B filters presoaked in 0.5% (v/v) polyethylenimine. Filters were washed three times with 1 mL of ice-cold 50 mM Tris-HCl buffer, pH 7.4. Data from dose-response curves (seven concentrations in duplicate) were analyzed using the program PRISM (Graph Pad Software Inc., San Diego, CA, USA) to yield IC50 (inhibitory concentration 50). Results were expressed as Ki using the Cheng and Prusoff equation: Ki = IC50/[1 + (L/KD)], where [L] is the concentration of radioligand used in the assay and KD, the dissociation constant of the radioligand characterizing the membrane preparation.

[2] = biological target: T2, human melatonin MT2 receptor (Homo sapiens, UniProt P49286); assay: 2-[125I]Iodomelatonin competitive binding, MT2; settings: for Ki: 2-[125I]Iodomelatonin radioligand, membranes of HEK or CHO cells, mean of at least three experiments, read-out: MT2 Ki (µM) ± SEM
T2 construct: expressed in transfected cells; host or cells: HEK or CHO cells, stably transfected; membrane preparations
T2 sequence (P49286 1-362): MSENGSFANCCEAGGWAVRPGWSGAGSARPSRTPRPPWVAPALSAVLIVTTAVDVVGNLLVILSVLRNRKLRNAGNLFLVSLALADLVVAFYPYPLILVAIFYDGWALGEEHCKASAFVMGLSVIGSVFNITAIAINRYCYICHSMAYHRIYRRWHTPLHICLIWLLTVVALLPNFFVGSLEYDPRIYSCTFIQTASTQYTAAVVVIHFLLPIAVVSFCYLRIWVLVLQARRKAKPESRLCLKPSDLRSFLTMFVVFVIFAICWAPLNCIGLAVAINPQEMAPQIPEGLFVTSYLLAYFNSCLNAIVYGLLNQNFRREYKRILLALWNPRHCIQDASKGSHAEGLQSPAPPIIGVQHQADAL
Protocol: as §1, §2, §3

[3] = biological target: T3, MT2 receptor (CHO-MT2 membranes) (Homo sapiens, UniProt P49286); assay: [35S]GTPγS binding assay, MT2; assay type: biochemical; settings: for functional profile at MT2 / EC50: [35S]GTPγS binding; for EC50: CHO membranes, read-out: MT2 EC50 ± SEM
T3 construct: expressed in transfected cells; host or cells: CHO cells, transfected; membranes
T3 sequence (P49286 1-362): T2 sequence (P49286 1-362)
Protocol: as §2
[^35S]GTPγS binding assay was performed according to published methodology. Briefly, membranes from transfected CHO cells expressing MT1 and MT2 receptor subtypes and compounds were diluted in binding buffer (20 mM HEPES, pH 7.4, 100 mM NaCl, 3 μM GDP, 3 mM MgCl2, and 20 μg/mL saponin). Incubation was started by the addition of 0.2 nM [^35S]GTPγS to membranes (20 μg/mL) and drugs, and further followed for 1h at room temperature.

SMILES | Ki [1] | Ki [2] | MT2/MT1 selectivity ratio ([2]; ratio of binding affinities MT1 vs MT2) | functional profile at MT2 [3] | EC50 [3] | Emax ([3]; read-out: MT2 Emax ± SEM (%))
COc1nc2ccccc2nc1CNC(C)=O [Compound 3a, N-(3-Methoxyquinoxalin-2-ylmethyl)-acetamide] | 2.98 ± 0.36 µM | 0.88 ± 0.3 µM | – | – | – | –
CCC(=O)NCc1nc2ccccc2nc1OC [Compound 3b, N-(3-Methoxyquinoxalin-2-ylmethyl)-propionamide] | 2.6 ± 0.23 µM | 0.66 ± 0.01 µM | – | – | – | –
CCCC(=O)NCc1nc2ccccc2nc1OC [Compound 3c, N-(3-Methoxyquinoxalin-2-ylmethyl)-butyramide] | 0.75 ± 0.36 µM | 1.1 ± 0.03 µM | – | – | – | –
COc1nc2ccccc2nc1CNC(=O)C(C)C [Compound 3d, N-(3-Methoxyquinoxalin-2-ylmethyl)-isobutyramide] | 1.23 ± 0.32 µM | 0.47 ± 0.02 µM | – | – | – | –
COc1nc2ccccc2nc1CNC(=O)c1ccccc1 [Compound 3e, N-(3-Methoxy-quinoxalin-2-ylmethyl)-benzamide] | > 1000 µM | > 1000 µM | – | – | – | –
CCNC(=O)NCc1nc2ccccc2nc1OC [Compound 3f, Ethyl-3-(3-methoxyquinoxalin-2-ylmethyl)urea] | > 1000 µM | 0.4 ± 0.13 µM | – | – | – | –
CCCNC(=O)NCc1nc2ccccc2nc1OC [Compound 3g, 1-(3-Methoxyquinoxalin-2-ylmethyl)-3-propylurea] | > 1000 µM | 0.44 µM | – | – | – | –
COc1nc2ccccc2nc1CNC(=O)NC(C)C [Compound 3h, 1-Isopropyl-3-(3-methoxyquinoxalin-2-ylmethyl)urea] | > 1000 µM | > 1000 µM | – | – | – | –
COc1nc2ccccc2nc1CNC(=O)Nc1ccccc1 [Compound 3i, 1-(3-Methoxyquinoxalin-2-ylmethyl)-3-phenyl-urea] | > 1000 µM | > 1000 µM | – | – | – | –
COc1nc2ccc(NC(C)=O)cc2nc1OC [Compound 6a, N-(2,3-Dimethoxyquinoxalin-6-yl)acetamide] | 20 ± 1.82 µM | 0.08 µM | 250 | antagonist | > 10 µM | –
CCC(=O)Nc1ccc2nc(OC)c(OC)nc2c1 [Compound 6b, N-(2,3-Dimethoxyquinoxalin-6-yl)propionamide] | 17.6 ± 7.81 µM | 4.36 ± 1.22 µM | – | – | – | –
CCCC(=O)Nc1ccc2nc(OC)c(OC)nc2c1 [Compound 6c, N-(2,3-Dimethoxyquinoxalin-6-yl)butyramide] | 11.5 ± 2.8 µM | 1.35 ± 0.31 µM | – | full agonist | 1.3 ± 0.26 µM | 84 ± 9.5%
COc1nc2ccc(NC(=O)C(C)C)cc2nc1OC [Compound 6d, N-(2,3-Dimethoxyquinoxalin-6-yl)isobutyramide] | 3.4 ± 1.37 µM | 10.5 ± 2.96 µM | – | – | – | –
COc1nc2ccc(NC(=O)c3ccccc3)cc2nc1OC [Compound 6e, N-(2,3-Dimethoxyquinoxalin-6-yl)benzamide] | > 1000 µM | > 1000 µM | – | – | – | –
CCNC(=O)Nc1ccc2nc(OC)c(OC)nc2c1 [Compound 6f, 1-(2,3-Dimethoxyquinoxalin-6-yl)-3-ethylurea] | 3.41 ± 1.89 µM | 28.8 µM | – | – | – | –
CCCNC(=O)Nc1ccc2nc(OC)c(OC)nc2c1 [Compound 6g, 1-(2,3-Dimethoxyquinoxalin-6-yl)-3-propylurea] | 1.63 ± 0.44 µM | 0.489 ± 0.07 µM | – | – | – | –
COc1nc2ccc(NC(=O)NC(C)C)cc2nc1OC [Compound 6h, 1-(2,3-Dimethoxyquinoxalin-6-yl)-3-isopropylurea] | > 1000 µM | > 1000 µM | – | – | – | –
COc1nc2ccc(NC(=O)Nc3ccccc3)cc2nc1OC [Compound 6i, 1-(2,3-Dimethoxyquinoxalin-6-yl)-3-phenylurea] | > 1000 µM | > 1000 µM | – | – | – | –
COc1ccc2ncc(CNC(C)=O)nc2c1 [Compound 10a, N-[(7-Methoxyquinoxalin-2-yl)methyl]acetamide] | > 1000 µM | > 1000 µM | – | – | – | –
CCC(=O)NCc1cnc2ccc(OC)cc2n1 [Compound 10b, N-[(7-Methoxyquinoxalin-2-yl)methyl]propionamide] | > 1000 µM | 0.34 ± 0.15 µM | – | – | – | –
CCCC(=O)NCc1cnc2ccc(OC)cc2n1 [Compound 10c, N-[(7-Methoxyquinoxalin-2-yl)methyl]butyramide] | 0.21 ± 0.11 µM | 0.1 ± 0.01 µM | – | – | – | –
COc1ccc2ncc(CNC(=O)C(C)C)nc2c1 [Compound 10d, N-[(7-Methoxyquinoxalin-2-yl)methyl]isobutyramide] | 0.32 ± 0.04 µM | 0.16 µM | – | – | – | –
COc1ccc2ncc(CNC(=O)c3ccccc3)nc2c1 [Compound 10e, N-[(7-Methoxyquinoxalin-2-yl)methyl]benzamide] | > 1000 µM | > 1000 µM | – | – | – | –
